The test has as its target T1, human metabotropic glutamate receptor 5 (hmGluR5) (Homo sapiens, UniProt P41594).
T1 construct: expressed in transfected cells
As to the kind of experiment: Calcium mobilization (FLIPR) assay for negative allosteric modulation, EC80 glutamate, hmGluR5 in HEK 293. It counts as cell-based. Particulars: HEK293; hmGluR5, inhibition of EC80 glutamate response; read-out: FLIPR maximum inhibition. The procedure: The cDNA for rat metabotropic glutamate receptor 5 (rmGluR5) and the cDNA for human metabotropic glutamate receptor 5 (hmGluR5) were generous gifts from S. Nakanishi (Kyoto University, Kyoto, Japan). The rmGluR5 or hmGluR5 was stably expressed in a HEK 293 cell line and grown in Dulbecco's Modified Eagle Medium (DMEM) (Invitrogen, Carlsbad, Calif.) with supplements (10% bovine calf serum, 4 mM glutamine, 100 units/mL penicillin, 100 μg/mL streptomycin and 0.75 mM G1418) at 37° C., 5% CO2. Twenty-four hours prior to assay, cells were seeded into 384-well black wall microtiter plates coated with poly-D-lysine. Just prior to assay, media was aspirated and cells dye-loaded (25 μL/well) with 3 μM Fluo-4/0.01% pluronic acid in assay buffer (Hank's Balanced Saline Solution (HBSS)): 150 mM NaCl, 5 mM KCl, 1 mM CaCl2, 1 mM MgCl2, plus 20 mM N-2-Hydroxyethylpiperazine-N′-2-ethanesulfonic acid (HEPES), pH 7.4, 0.1% bovine serum albumin (BSA) and 2.5 mM probenicid) for 1 hour in 5% CO2 at 37° C. After excess dye was discarded, cells were washed in assay buffer and layered with a final volume equal to 30 μL/well. Basal fluorescence is monitored in a fluorometric imaging plate reader (FLIPR) (Molecular Devices, Sunnyvale, Calif.) with an excitation wavelength of 488 nm and an emission range of 500 to 560 nm. Laser excitation energy was adjusted so that basal fluorescence readings were approximately 10,000 relative fluorescent units. Cells were stimulated with an EC20 or an EC80 concentration of glutamate in the presence of a compound to be tested, both diluted in assay buffer, and relative fluorescent units were measured at defined intervals (exposure=0.6 sec) over a 3 min period at room temperature. Basal readings derived from negative controls were subtracted from all samples. Maximum change in fluorescence was calculated for each well. Concentration-response curves derived from the maximum change in fluorescence were analyzed by nonlinear regression (Hill equation). A negative modulator can be identified from these concentration-response curves if a compound produces a concentration dependent inhibition of the EC80 glutamate response.

The structures appear in SMILES notation.

T1 sequence (P41594 21-1212): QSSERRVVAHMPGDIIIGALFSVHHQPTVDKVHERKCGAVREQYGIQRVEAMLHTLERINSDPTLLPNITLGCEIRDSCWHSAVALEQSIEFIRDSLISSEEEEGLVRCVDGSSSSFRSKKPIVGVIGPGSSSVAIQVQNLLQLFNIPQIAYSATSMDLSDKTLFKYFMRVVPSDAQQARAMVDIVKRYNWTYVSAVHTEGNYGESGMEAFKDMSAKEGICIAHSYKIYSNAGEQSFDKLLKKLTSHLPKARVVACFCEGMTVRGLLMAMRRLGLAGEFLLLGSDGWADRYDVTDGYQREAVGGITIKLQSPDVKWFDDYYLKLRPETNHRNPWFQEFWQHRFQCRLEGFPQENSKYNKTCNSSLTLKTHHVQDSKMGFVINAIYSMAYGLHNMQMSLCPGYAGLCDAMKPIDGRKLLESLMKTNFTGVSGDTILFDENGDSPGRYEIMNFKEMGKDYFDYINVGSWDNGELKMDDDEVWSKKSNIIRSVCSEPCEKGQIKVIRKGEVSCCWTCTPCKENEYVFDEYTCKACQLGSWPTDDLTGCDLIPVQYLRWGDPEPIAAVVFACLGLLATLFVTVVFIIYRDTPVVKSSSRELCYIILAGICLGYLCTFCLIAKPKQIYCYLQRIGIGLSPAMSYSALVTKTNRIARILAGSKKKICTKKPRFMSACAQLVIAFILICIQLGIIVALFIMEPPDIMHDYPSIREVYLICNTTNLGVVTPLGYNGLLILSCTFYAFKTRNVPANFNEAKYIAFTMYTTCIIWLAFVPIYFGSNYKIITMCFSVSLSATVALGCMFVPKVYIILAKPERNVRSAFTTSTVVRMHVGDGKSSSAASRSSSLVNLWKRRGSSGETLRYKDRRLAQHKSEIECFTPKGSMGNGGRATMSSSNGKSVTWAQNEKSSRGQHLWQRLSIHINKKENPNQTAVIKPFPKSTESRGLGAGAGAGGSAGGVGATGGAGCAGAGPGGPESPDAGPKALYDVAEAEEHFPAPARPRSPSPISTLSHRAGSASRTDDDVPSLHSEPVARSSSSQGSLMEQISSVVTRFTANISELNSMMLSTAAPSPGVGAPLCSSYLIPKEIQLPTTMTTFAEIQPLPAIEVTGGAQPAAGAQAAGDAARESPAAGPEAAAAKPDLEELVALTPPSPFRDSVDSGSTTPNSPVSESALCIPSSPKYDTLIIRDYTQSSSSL

Take `Cc1nccc(N2CC[C@]3(CCC[C@H](NC(=O)c4cccc(Cl)c4)C3)C2=O)n1` (racemic) [Example 58]: the Emax was in the range of 73 to 95%.

Consider `Cc1nccc(C(=O)N[C@H]2CCC[C@]3(CCN(c4cc(F)cc(F)c4)C3=O)C2)n1` (racemic) [Example 76, cis 2-Methyl-pyrimidine-4-carboxylic acid [2-(3,5-difluoro-phenyl)-1-oxo-2-aza-spiro[4.5]dec-7-yl]-amide], for which the Emax lay in the range of 73 to 95%.

As to `Cc1cc(C(=O)N[C@H]2CCC[C@]3(CCN(c4cccc(F)c4)C3=O)C2)ccn1` (racemic) [Example 78, cis-N-[2-(3-Fluoro-phenyl)-1-oxo-2-aza-spiro[4.5]dec-7-yl]-2-methyl-isonicotinamide], the Emax lay in the range of 73 to 95%.

Turning to `Cc1cccc(C(=O)N[C@H]2CCC[C@]3(CCN(c4ccnc(C)n4)C3=O)C2)c1` (racemic) [Example 84, cis-3-Methyl-N-[2-(2-methyl-pyrimidin-4-yl)-1-oxo-2-aza-spiro [4.5]dec-7-yl]-benzamide], the Emax fell in the range of 73 to 95%.

Consider `O=C(N[C@@H]1CC(F)(F)C[C@@]2(CCN(c3cccc(F)c3)C2=O)C1)c1ccccn1` (racemic) [Example 97, cis-Pyridine-2-carboxylic acid [9,9-difluoro-2-(3-fluoro-phenyl)-1-oxo-2-aza-spiro[4.5]dec-7-yl]-amide], for which the Emax fell in the range of 88 to 93%.

As to `Cc1cccc(C(=O)N[C@@H]2CC(F)(F)C[C@@]3(CCN(c4ccc(F)cn4)C3=O)C2)n1` (racemic) [Example 109, cis-6-Methyl-pyridine-2-carboxylic acid [9,9-difluoro-2-(5-fluoro-pyridin-2-yl)-1-oxo-2-aza-spiro[4.5]dec-7-yl]-amide], the Emax was in the range of 47 to 93%.

With `O=C(N[C@@H]1CC(F)(F)C[C@@]2(CCN(c3cc(F)cc(F)c3)C2=O)C1)c1ccccn1` (racemic) [Example 110, cis-Pyridine-2-carboxylic acid [2-(3,5-difluoro-phenyl)-9,9-difluoro-1-oxo-2-aza-spiro[4.5]dec-7-yl]-amide], the Emax was in the range of 47 to 93%.

In the case of `Cc1nccc(N2CC[C@@]3(C[C@@H](NC(=O)c4cccc(F)c4)CC(F)(F)C3)C2=O)n1` (racemic) [Example 128, cis-N-[9,9-Difluoro-2-(2-methyl-pyrimidin-4-yl)-1-oxo-2-aza-spiro[4.5]dec-7-yl]-3-fluoro-benzamide], the Emax lay in the range of 47 to 93%.

On to `Cc1nccc(C(=O)N[C@@H]2CC(F)(F)C[C@@]3(CCN(c4cccc(F)c4)C3=O)C2)n1` (racemic) [Example 129, cis-2-Methyl-pyrimidine-4-carboxylic acid [9,9-difluoro-2-(3-fluoro-phenyl)-1-oxo-2-aza-spiro[4.5]dec-7-yl]-amide], for which the Emax was in the range of 47 to 93%.

For the compound `Cc1cncc(N2CC[C@]3(CCC[C@H](NC(=O)c4ccnc(C)n4)C3)C2=O)n1` (relative stereo) [Example 59, cis-2-Methyl-pyrimidine-4-carboxylic acid [2-(6-methyl-pyrazin-2-yl)-1-oxo-2-aza-spiro[4.5]dec-7-yl]-amide], the Emax was in the range of 73 to 95%.

For the compound `Cc1nccc(C(=O)N[C@H]2CCC[C@]3(CCN(c4cccc(C#N)c4)C3=O)C2)n1` (relative stereo) [Example 60, cis-2-Methyl-pyrimidine-4-carboxylic acid [2-(3-cyano-phenyl)-1-oxo-2-aza-spiro [4.5]dec-7-yl]-amide], the Emax was 73 to 95%.

Regarding `Cc1nccc(C(=O)N[C@H]2CCC[C@]3(CCN(c4cccc(C(F)(F)F)n4)C3=O)C2)n1` (relative stereo) [Example 61, cis-2-Methyl-pyrimidine-4-carboxylic acid [1-oxo-2-(6-trifluoromethyl-pyridin-2-yl)-2-aza-spiro[4.5]dec-7-yl]-amide], the Emax lay within 73 to 95%.

On to `Cc1cccc(C(=O)N[C@H]2CCC[C@]3(CCN(c4ccnc(C)n4)C3=O)C2)n1` (relative stereo) [Example 62, cis-6-methyl-pyridine-2-carboxylic acid [2-(2-methyl-pyrimidin-4-yl)-1-oxo-2-aza-spiro[4.5]dec-7-yl]-amide], for which the Emax was 73 to 95%.

As to `Cc1ccc(N2CC[C@]3(CCC[C@H](NC(=O)c4cccc(C)n4)C3)C2=O)cn1` (relative stereo) [Example 63, cis-6-Methyl-pyridine-2-carboxylic acid [2-(6-methyl-pyridin-3-yl)-1-oxo-2-aza-spiro[4.5]dec-7-yl]-amide], the Emax fell in the range of 73 to 95%.

As for `Cc1cccc(C(=O)N[C@H]2CCC[C@]3(CCN(c4cncc(F)c4)C3=O)C2)n1` (relative stereo) [Example 64, cis-6-Methyl-pyridine-2-carboxylic acid [2-(5-fluoro-pyridin-3-yl)-1-oxo-2-aza-spiro[4.5]dec-7-yl]-amide], the Emax fell in the range of 73 to 95%.

With `Cc1nccc(N2CC[C@]3(CCC[C@H](NC(=O)c4cccc(F)c4)C3)C2=O)n1` (relative stereo) [Example 65, cis-3-Fluoro-N-[2-(2-methyl-pyrimidin-4-yl)-1-oxo-2-aza-spiro[4.5]dec-7-yl]-benzamide], the Emax was in the range of 73 to 95%.

Turning to `Cc1cc(N2CC[C@]3(CCC[C@H](NC(=O)c4cccc(F)c4)C3)C2=O)ccn1` (relative stereo) [Example 66, cis-3-Fluoro-N-[2-(2-methyl-pyridin-4-yl)-1-oxo-2-aza-spiro[4.5]dec-7-yl]-benzamide], the Emax was in the range of 73 to 95%.

For the compound `O=C(N[C@H]1CCC[C@]2(CCN(c3cccc(F)c3)C2=O)C1)c1ccc(F)cn1` (relative stereo) [Example 68, cis-5-Fluoro-pyridine-2-carboxylic acid [2-(3-fluoro-phenyl)-1-oxo-2-aza-spiro [4.5]dec-7-yl]-amide], the Emax fell in the range of 73 to 95%.

Turning to `Cc1nccc(C(=O)N[C@H]2CCC[C@]3(CCN(c4cccc(F)c4)C3=O)C2)n1` (relative stereo) [Example 69, cis-2-Methyl-pyrimidine-4-carboxylic acid [2-(3-fluoro-phenyl)-1-oxo-2-aza-spiro[4.5]dec-7-yl]-amide], the Emax was 73 to 95%.

Consider `O=C(N[C@H]1CCC[C@]2(CCN(c3cccc(F)c3)C2=O)C1)c1ccncn1` (relative stereo) [Example 70, cis-Pyrimidine-4-carboxylic acid [2-(3-fluoro-phenyl)-1-oxo-2-aza-spiro [4.5]dec-7-yl]-amide], for which the Emax is 73 to 95%.

On to `Cc1cncc(N2CC[C@]3(CCC[C@H](NC(=O)c4cccc(C)n4)C3)C2=O)c1` (relative stereo) [Example 71, cis-6-Methyl-pyridine-2-carboxylic acid [2-(5-methyl-pyridin-3-yl)-1-oxo-2-aza-spiro[4.5]dec-7-yl]-amide], for which the Emax fell in the range of 73 to 95%.

In the case of `COc1cccc(N2CC[C@]3(CCC[C@H](NC(=O)c4cccc(C)n4)C3)C2=O)c1` (relative stereo) [Example 72, cis-6-Methyl-pyridine-2-carboxylic acid [2-(3-methoxy-phenyl)-1-oxo-2-aza-spiro[4.5]dec-7-yl]-amide], the Emax is 73 to 95%.

For the compound `O=C(N[C@H]1CCC[C@]2(CCN(c3cncc(F)c3)C2=O)C1)c1ccccn1` (relative stereo) [Example 74, cis-Pyridine-2-carboxylic acid [2-(5-fluoro-pyridin-3-yl)-1-oxo-2-aza-spiro[4.5]dec-7-yl]-amide], the Emax lay in the range of 73 to 95%.

For the compound `O=C(N[C@H]1CCC[C@]2(CCN(c3ccc(F)c(F)c3)C2=O)C1)c1ccccn1` (relative stereo) [Example 75, cis-Pyridine-2-carboxylic acid [2-(3,4-difluoro-phenyl)-1-oxo-2-aza-spiro[4.5]dec-7-yl]-amide], the Emax lay within 73 to 95%.

As to `O=C(N[C@H]1CCC[C@]2(CCN(c3cccc(F)c3)C2=O)C1)c1ccncc1` (relative stereo) [Example 77, cis-N-[2-(3-Fluoro-phenyl)-1-oxo-2-aza-spiro[4.5]dec-7-yl]-isonicotinamide], the Emax fell in the range of 73 to 95%.

Consider `O=C(N[C@H]1CCC[C@]2(CCN(c3cc(F)cc(F)c3)C2=O)C1)c1ccncn1` (relative stereo) [Example 79, cis-Pyrimidine-4-carboxylic acid [2-(3,5-difluoro-phenyl)-1-oxo-2-azaspiro[4.5]dec-7-yl]-amide], for which the Emax was 73 to 95%.

Consider `Cc1cccc(C(=O)N[C@H]2CCC[C@]3(CCN(Cc4ccccc4)C3=O)C2)n1` (relative stereo) [Example 83, cis-6-methyl-pyridine-2-carboxylic acid (2-benzyl-1-oxo-2-aza-spiro[4.5]dec-7-yl)-amide], for which the Emax was 73 to 95%.

On to `Cc1nccc(N2CC[C@]3(CCC[C@H](NC(=O)c4cc(F)cc(F)c4)C3)C2=O)n1` (relative stereo) [Example 85, cis-3,5-Difluoro-N-[2-(2-methyl-pyrimidin-4-yl)-1-oxo-2-aza-spiro [4.5]dec-7-yl]-benzamide], for which the Emax lay in the range of 73 to 95%.

The values above are taken from US9359297B2, “Spirolactam derivatives and uses of same” (H. Lundbeck A/S, priority 2009, dated 2016).
